Measured values as given in US7700786B2, “Pyrazole derivative, intermediate therefor, processes for producing these, and herbicide containing these as active ingredient” (Sagami Chemical Research Center, priority 2001, dated 2010).

What was measured:
[1] = tested on: Monochoria vaginalis; test: Herbicidal efficacy test by pre-emergence treatment under submergence condition; assay type: in vivo; conditions: 15th day after treatment, ratings of 1 to 5; also: key: 1 shows no influence; 5 shows complete die
Source text: (§3) A 1/10,000-are pot was filled with paddy field soil, and, after plowing, seeds of Echinochloa oryzicola, Cyperus difformis, Monochoria vaginalis, Scirpus juncoides, Eleocharis acicularis and other annual broadleaf weeds such as Lindernia procumbens, Rotala indica and Elatine triandra were sown. Rice (oryza sativa) seedlings (cultiver “Koshihikari”) at a 2.5-leaf stage were transplanted and kept under a submergence condition. After one day, the wettable powder or emulsifiable concentrate of the compound of the present invention, prepared according to Preparation Example, was diluted and dropped on a water surface at a predetermined dose.

[2] = tested on: Echinochloa oryzicola; test: as above; assay type: in vivo; conditions: 15th day after treatment, ratings of 1 to 5
Source text: as §3

[3] = tested on: Cyperus difformis; test: as above; assay type: in vivo; conditions: 15th day after treatment, ratings of 1 to 5; also: key: 1 shows no influence; 5 shows complete die
Source text: as §3

[4] = tested on: Eleocharis acicularis; test: as above; assay type: in vivo; conditions: 15th day after treatment, ratings of 1 to 5; also: key: 1 shows no influence; 5 shows complete die
Source text: as §3

[5] = tested on: Scirpus juncoides; test: as above; assay type: in vivo; conditions: 15th day after treatment, ratings of 1 to 5
Source text: as §3

[6] = tested on: Digitaria ciliaris; test: Herbicidal efficacy test by soil treatment before germination under upland field condition; assay type: in vivo; conditions: dose 1 kg/ha; 21st day after treatment; ratings of 1 to 5
Source text: (§1) A vat having an area of 5×10 cm^2 and a depth of 5 cm was filled with upland field soil, and seeds of Chenopodium album, Echinochloa crus-galli, Amaranthus viridis, Digitaria ciliaris and sweet corn (Zea mays) were sown thereon and covered with soil by a depth of 0.5 cm.

[7] = tested on: Chenopodium album; test: as above; assay type: in vivo; conditions: dose 1 kg/ha; 21st day after treatment; ratings of 1 to 5
Source text: as §1

[8] = tested on: Amaranthus viridis; test: as above; assay type: in vivo; conditions: dose 1 kg/ha; 21st day after treatment; ratings of 1 to 5
Source text: as §1

[9] = tested on: Echinochloa crus-galli; test: as above; assay type: in vivo; conditions: dose 1 kg/ha; 21st day after treatment; ratings of 1 to 5
Source text: as §1

[10] = tested on: Chenopodium album; test: Herbicidal efficacy test by foliar treatment after germination under upland field condition; assay type: in vivo; conditions: dose 1 kg/ha, rated 1 to 5 on the 14th day after treatment; also: key: 1 shows no influence; 5 shows complete die
Source text: (§2) A vat having an area of 5×10 cm^2 and a depth of 5 cm was filled with upland field soil, and seeds of Chenopodium album, Echinochloa crus-galli, Amaranthus viridis and Abutilon theophrasti were sown thereon and covered with soil by a depth of 0.5 cm. Water was sprayed as required to grow them for 14 days.

[11] = tested on: Amaranthus viridis; test: as above; assay type: in vivo; conditions: dose 1 kg/ha, rated 1 to 5 on the 14th day after treatment
Source text: as §2

[12] = tested on: Echinochloa crus-galli; test: as above; assay type: in vivo; conditions: dose 1 kg/ha, rated 1 to 5 on the 14th day after treatment
Source text: as §2

[13] = tested on: Abutilon theophrasti; test: as above; assay type: in vivo; conditions: Dc: Digitaria ciliaris (table footnote; method names Abutilon theophrasti), dose 1 kg/ha, rated 1 to 5 on the 14th day after treatment
[14] = tested on: annual broadleaf weeds such as Lindernia procumbens, Rotala indica and Elatine triandra; test: Herbicidal efficacy test by pre-emergence treatment under submergence condition; assay type: in vivo; conditions: 15th day after treatment, ratings of 1 to 5
Source text: as §3

[15] = tested on: Rice (oryza sativa) seedlings (cultiver Koshihikari); conditions: in vivo
Source text: as §3

[16] = tested on: sweet corn (Zea mays); test: Injury to corn, soil treatment before germination under upland field condition; assay type: in vivo; conditions: dose 1 kg/ha; 21st day after treatment; ratings of 1 to 5
Source text: as §1
For Herbicidal activity Av in this document: key: 1 shows no influence; 5 shows complete die.
For Herbicidal activity Ca in this document: key: 1 shows no influence; 5 shows complete die.

Compound	Herbicidal efficacy Mv ([1]; dose 0.5 kg/ha)	Herbicidal efficacy Mv ([1]; dose 1 kg/ha)	Herbicidal efficacy Eo ([2]; dose 0.5 kg/ha)	Herbicidal efficacy Eo ([2]; dose 1 kg/ha)	Herbicidal efficacy Cd ([3]; dose 0.5 kg/ha)	Herbicidal efficacy Cd ([3]; dose 1 kg/ha)	Herbicidal efficacy Ea ([4]; dose 0.5 kg/ha)	Herbicidal efficacy Ea ([4]; dose 1 kg/ha)	Herbicidal efficacy Sj ([5]; dose 0.5 kg/ha)	Herbicidal efficacy Sj ([5]; dose 1 kg/ha)	Herbicidal activity Dc [6]	Herbicidal activity Ca [7]	Herbicidal activity Av [8]	Herbicidal activity Ec [9]	Herbicidal activity Ca [10]	Herbicidal activity Av [11]	Herbicidal activity Ec [12]	Herbicidal activity Dc [13]	Herbicidal efficacy Blw ([14]; dose 0.5 kg/ha)	Herbicidal efficacy Blw ([14]; dose 1 kg/ha)	further results
CNC(=O)n1nc(Oc2c(Cl)cc(C(F)(F)F)cc2Cl)cc1C [Compound 3-14]	5	5	5	5	5	5	5	5	5	5	5	5	5	4.9	5	5	5	5	5	5	
CCCNC(=O)n1nc(Oc2c(Cl)cc(C(F)(F)F)cc2Cl)cc1C [Compound 3-74]	5	5	5	5	5	5	5	5	5	5	5	5	5	4.9	5	5	4.9	5	5	5	Injury Os [15]: 1.8; Injury Zm [16]: 1
Cc1cc(Oc2c(Cl)cc(C(F)(F)F)cc2Cl)nn1C(N)=O [Compound 3-3]	5	5	5	5	5	5	5	5	5	5	4.5	5	5	3.5	5	5	4.5	5	5	5	Injury Os [15]: 1.5; Injury Zm [16]: 1.5
Cc1cc(Oc2c(Cl)cc(C(F)(F)F)cc2Cl)nn1C(=O)NCCBr [Compound 3-146]	5	5	5	5	5	5	5	5	5	5									5	5	Injury Os [15]: 1
CCNC(=S)n1nc(Oc2c(Cl)cc(C(F)(F)F)cc2Cl)cc1C [Compound 3-45]	5	5	5	5	5	5	5	5	4	5	5	5	5	5	5	5	5	5	5	5	Injury Zm [16]: 2
CNC(=O)n1nc(Oc2c(Cl)cc(C(F)(F)F)cc2Cl)c(Cl)c1C [Compound 3-249]	5	5	5	5	5	5	5	5	5	5	5	5	5	4.5	5	5	5	5	5	5	Injury Zm [16]: 1.2
CCNC(=O)n1nc(Oc2c(Cl)cc(C(F)(F)F)cc2Cl)cc1C [Compound 3-44]	5	5	5	5	5	5	5	5	5	5	5	5	5	5	5	5	5	5	5	5	Injury Zm [16]: 3
CNC(=S)n1nc(Oc2c(Cl)cc(C(F)(F)F)cc2Cl)cc1C [Compound 3-15]	5	5	5	5	5	5	5	5	5	5					5	5	5	5	5	5	
C=CCNC(=O)n1nc(Oc2c(Cl)cc(C(F)(F)F)cc2Cl)cc1C [Compound 3-130]	5	5	5	5	5	5	5	5	5	5					5	5	5	5	5	5	
CCNC(=O)n1nc(Oc2c(Cl)cc(C(F)(F)F)cc2Cl)c(Cl)c1C [Compound 3-253]	5	5	5	5	5	5	5	5	5	5	5	5	5	4	5	5	5	5	5	5	Injury Zm [16]: 1.5
COCNC(=S)n1nc(Oc2c(Cl)cc(C(F)(F)F)cc2Cl)cc1C [Compound 3-169]	5	5	5	5	5	5	5	5	4	4.2									5	5	Injury Os [15]: 1
CCNC(=O)n1nc(Oc2c(Cl)cc(C(F)(F)F)cc2Cl)cc1CC [Compound 3-330]	5	5	5	5	5	5	5	5	5	5	5	5	5	3.5	5	5	5	5	5	5	Injury Zm [16]: 1.5
